The values that follow come from PubChem BioAssay (NCI).

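Grown in 96-well plates, cells were treated for 48 hours with each compound at five concentrations. Insufficient inhibition: endpoint recorded as highest concentration tested. Abbreviation: GI50, concentration required for 50% inhibition of growth. Definition used: TGI = concentration required for complete inhibition of growth.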 Where only a bound is given, the exact number is not on record here.

For this assay, the system named is MDA-MB-468 breast. The assay can be described thus: inhibition of tumour cell growth, NCI panel, 48 h.
Turning to `Cc1ccc(/C=C/C(=O)c2ccc(N)cc2)c(C)c1`, the GI50 was 2.41 µM and the TGI came out at 5.13 µM.
For `CC1CC(C)/C(=N/NC(N)=O)C(C(O)CC2CCC(=O)NC2=O)C1` (configuration not stated), in that order: 9.15 µM and above 100 µM.
As to `O=C1Nc2ccccc2/C1=C/c1cn(C(=O)c2c(Cl)cccc2Cl)c2ccccc12`, the GI50 was 4.52 µM and the TGI amounted to 20.1 µM.
On to `Cc1cc(NCCCCNc2ccnc3cc(Cl)ccc23)nc(Nc2ccc(C(=O)N3CCCC3)cc2)n1`, for which the GI50 is 1.82 µM and the TGI came to 4.04 µM.
As for `NC(N)=N/N=C(/c1ccccc1)c1ccc(Cl)cc1`, the GI50 was 2.4 µM and the TGI worked out at 13 µM.
`COc1ccc(Cn2cnc3cc(C(=O)Nc4cccc5ccccc45)ccc32)c(OC)c1`: the GI50 was 0.0358 µM and the TGI amounted to 2.42 µM.
For `COc1cc(C2CC(c3ccc(Nc4ccnc5cc(Cl)ccc45)cc3)=NN2C=O)cc(OC)c1OC` (configuration not stated), in that order: 1.83 µM and 4.38 µM.
For the compound `O=c1oc2ccc(F)cc2c(=O)n1-c1ccc(Cl)cc1F`, the GI50 was 1.51 µM and the TGI is 5.31 µM.
For `O=C(Nc1cccc([N+](=O)[O-])c1)c1ccc2ccccc2c1O`, in that order: 3.38 µM and 71.3 µM.
As for `COc1cc(Nc2ncc3c(C)nc(-c4cccc(Oc5ccccc5)c4)n3n2)cc(OC)c1OC`, the GI50 is 2.98 µM and the TGI worked out at 18.4 µM.
With `O=C(Nc1ccc(Cl)cc1)c1ccc([N+](=O)[O-])o1`, the GI50 was 3.08 µM and the TGI stood at 14.9 µM.
In the case of `CCCCCCCCCCCCCCCCOC(=O)c1c(C)[nH]c(/C=C2\N=C(c3ccc[nH]3)C=C2OC)c1C`, the GI50 was 1.66 µM and the TGI was 5.29 µM.
Regarding `CCOCC(=O)N[C@H]1CCc2cc(OC(=O)COCC)c(OC)c(OC)c2-c2ccc(SC)c(=O)cc21`, the GI50 was 0.0714 µM and the TGI is above 100 µM.
`C=C(C)[C@@H]1CC[C@]2(C(=O)O)CC[C@]3(C)[C@H](CC[C@@H]4[C@@]5(C)C[C@@H](CC#Cc6ccc(Br)cc6)C(=O)C(C)(C)[C@@H]5CC[C@]43C)[C@@H]12`: the GI50 was 7.25 µM and the TGI turned out to be 33.5 µM.
As to `COc1cc(OC)c2cc(C(=O)O)c(=O)oc2c1`, the GI50 is above 100 µM and the TGI was above 100 µM.
As to `Cc1cc(O)ccc1O`, the GI50 was 13.3 µM and the TGI was 27.3 µM.
On to `COc1ccc(N(C)c2nc(Cl)nc3ccn(C)c23)cc1`, for which the GI50 is below 0.01 µM and the TGI is above 100 µM.
Consider `COc1ccc2c(c1)C(=O)/C(=C/c1ccc([N+](=O)[O-])s1)O2`, for which the GI50 was 0.291 µM and the TGI was found to be 1.36 µM.
As to `COc1ccc(/C(=N\O)c2cc(OC)c(OC)c(OC)c2)c(OC)c1N`, the GI50 is 3.99 µM and the TGI is above 100 µM.
As to `O=C1/C(=C/c2ccc(Cl)cc2)CN(Cc2cn(CCNc3ccnc4cc(Cl)ccc34)nn2)C/C1=C\c1ccc(Cl)cc1`, the GI50 is 0.234 µM and the TGI was found to be 0.644 µM.
For `COc1ccc(Cn2cc3c(c2-c2ccc(O)cc2)CCc2cnoc2-3)cc1`, in that order: 0.245 µM and 1.25 µM.
Regarding `O=C(Nc1cccnc1)c1cccc([N+](=O)[O-])c1`, the GI50 is above 100 µM and the TGI was above 100 µM.
In the case of `N#Cc1c(NC(=O)c2cccc3ccccc23)sc2c1CCCC2`, the GI50 is 0.154 µM and the TGI was above 7.22 µM.
For `CC1(C)N=C(N)N=C(N)N1c1ccc(OCC(=O)N2CCOCC2)c(Cl)c1`, in that order: 1.23 µM and above 100 µM.
On to `COc1cc(C(=O)/C=C/c2c(-c3ccc(F)cc3)nc3ncccn23)cc(OC)c1OC`, for which the GI50 was 2.75 µM and the TGI is 6.89 µM.
For the compound `O=C(NCC(=O)N1CC[C@H](NC2CCC(O)(c3ccc(-c4ncccn4)cn3)CC2)C1)c1cccc(C(F)(F)F)c1` (some centres not stated), the GI50 was 19.6 µM and the TGI was found to be 95.4 µM.
Consider `CCN(CC)CCCNc1nc2ccccc2c2c(=O)c3cc(Cl)ccc3sc12`, for which the GI50 is 1.59 µM and the TGI was determined as 4.85 µM.
As for `CC(=O)Nc1ccc2c(c1)C(=O)c1cccc(F)c1-2`, the GI50 was 15.2 µM and the TGI was determined as 45.8 µM.
Consider `O=C1/C(=C/c2ccc([N+](=O)[O-])o2)Oc2ccccc21`, for which the GI50 is 1.17 µM and the TGI amounted to 2.94 µM.
On to `O=C(CC(O)c1ccncc1)c1ccccc1` (configuration not stated), for which the GI50 is 24.3 µM and the TGI was above 100 µM.
In the case of `CC(C)=CCc1ccc(O)c(=O)cc1C(C)C`, the GI50 is 0.868 µM and the TGI came to 5.36 µM.
Consider `CS(=O)(=O)Nc1cccc(-c2ccc3c(NC(=O)C4CC4)n[nH]c3c2)c1`, for which the GI50 is 0.622 µM and the TGI was 24.8 µM.
On to `COc1ccc2cc3[n+](cc2c1OC)CCc1cc2c(cc1-3)OCO2`, for which the GI50 is 0.675 µM and the TGI came to 6.78 µM.
As to `CCCCCCCCCCCCSC(=NC)NC`, the GI50 is 1.47 µM and the TGI turned out to be 3.14 µM.
As for `Cn1ccnc1C(=O)/C=C/c1ccc(C(=O)Nc2ccccc2O)cc1`, the GI50 was 1.6 µM and the TGI was 3.67 µM.
Turning to `COc1cc2c(cc1OCCCCCn1c(-c3ccco3)nc3ccccc31)N=C[C@@H]1CCCN1C2=O`, the GI50 is below 0.01 µM and the TGI was below 0.01 µM.
With `O=C(N/N=c1/ccoc2cccnc12)N1CCN(c2ncccn2)CC1`, the GI50 is below 0.01 µM and the TGI was found to be 1.34 µM.
Consider `O=C1CSC(=S)N1Cc1cccnc1`, for which the GI50 is 3.82 µM and the TGI was determined as 17 µM.
For `Cc1ccc(NSc2ccccc2[N+](=O)[O-])cc1`, in that order: 0.57 µM and 16.3 µM.
As for `CCC1=Cc2cc(OC)ccc2OC12C=Cc1cc(OC)ccc1O2` (configuration not stated), the GI50 is 0.436 µM and the TGI is above 100 µM.
For `O=c1[nH]ccc2nc(-c3ccc(CN4CCC(c5nc(-c6ccccn6)n[nH]5)CC4)cc3)c(-c3ccccc3)cc12`, the GI50 is 0.0887 µM and the TGI was determined as 7.14 µM.
